Measurements taken from patent US6667387B1, “HCV core peptides” (priority 1992, dated 2003).
Ends that are not written are not given here.

How the values were obtained:
[1] = ELISA with seronegative / negative control sera (specificity); assay type: binding, human
Method in brief: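 Specificity readout is OD at 450 nm (HRP goat anti-human Ig, TMB/H2O2, sulfuric acid stop), with ≥0.250 counted positive. Seronegative donor sera (typically 1:100, 1 h, 37° C) were applied to casein-blocked wells coated with peptide directly or via streptavidin capture of biotinylated peptide.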

[2] = system: antibodies in sera from HCV-seropositive donors; assay: ELISA with HCV antibody-positive sera (biotinylated peptides on streptavidin- or avidin-coated plates, unbiotinylated peptides coated directly); assay type: binding, human
Method in brief: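 Peptides coated either directly at 2–5 or 3 μg/ml in carbonate buffer pH 9.6, or biotinylated at 1 μg/ml on streptavidin-coated wells (3 μg/ml). Plates casein-blocked, then human sera (1:100 or 1:20) incubated 1 h at 37° C. Bound antibody detected with HRP anti-human Ig/TMB, read as OD450.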

Question: Which “optical density (450 nm)” value ([1]; Table 4C, negative serum) does the source give for PQRKTKRNTNRRPQDVKFPG here?
Answer: 0.047

Question: What about the “optical density (450 nm)” value ([1]; Table 5, sample 1747 (negative), peptide concentration 0.01 micrograms per milliliter, listed as Unbiotinylated HCV peptide II) of the same sequence?
Answer: 0.041

Question: And the “optical density (450 nm)” value ([1]; Table 5, sample 1747 (negative), peptide concentration 0.03 micrograms per milliliter, listed as Unbiotinylated HCV peptide II)?
Answer: 0.043

Question: What about the “optical density (450 nm)” value ([1]; Table 5, sample 1747 (negative), peptide concentration 0.1 micrograms per milliliter, listed as Unbiotinylated HCV peptide II) of the same sequence?
Answer: 0.044

Question: What about the “optical density (450 nm)” value ([1]; Table 5, sample 1747 (negative), peptide concentration 0.3 micrograms per milliliter, listed as Unbiotinylated HCV peptide II) of the same sequence?
Answer: 0.041

Question: And the “optical density (450 nm)” value ([1]; Table 5, sample 1747 (negative), peptide concentration 1.0 micrograms per milliliter, listed as Unbiotinylated HCV peptide II)?
Answer: 0.046

Question: What about the “optical density (450 nm)” value ([1]; Table 5, sample 1747 (negative), peptide concentration 3.0 micrograms per milliliter, listed as Unbiotinylated HCV peptide II) of the same sequence?
Answer: 0.049

Question: And the “optical density (450 nm)” value ([1]; Table 5, sample 1781 (negative), peptide concentration 0.01 micrograms per milliliter, listed as Unbiotinylated HCV peptide II)?
Answer: 0.046

Question: And the “optical density (450 nm)” value ([1]; Table 5, sample 1781 (negative), peptide concentration 0.03 micrograms per milliliter, listed as Unbiotinylated HCV peptide II)?
Answer: 0.053

Question: What about the “optical density (450 nm)” value ([1]; Table 5, sample 1781 (negative), peptide concentration 0.1 micrograms per milliliter, listed as Unbiotinylated HCV peptide II) of the same sequence?
Answer: 0.046

Question: And the “optical density (450 nm)” value ([1]; Table 5, sample 1781 (negative), peptide concentration 0.3 micrograms per milliliter, listed as Unbiotinylated HCV peptide II)?
Answer: 0.045

Question: What about the “optical density (450 nm)” value ([1]; Table 5, sample 1781 (negative), peptide concentration 1.0 micrograms per milliliter, listed as Unbiotinylated HCV peptide II) of the same sequence?
Answer: 0.053

Question: And the “optical density (450 nm)” value ([1]; Table 5, sample 1781 (negative), peptide concentration 3.0 micrograms per milliliter, listed as Unbiotinylated HCV peptide II)?
Answer: 0.053

Question: What about the “optical density (450 nm)” value ([2]; Table 4C, serum 8241, 20-fold dilution) of the same sequence?
Answer: 0.444

Question: What about the “optical density (450 nm)” value ([2]; Table 4C, serum 8242, 20-fold dilution) of the same sequence?
Answer: 1.682

Question: And the “optical density (450 nm)” value ([2]; Table 4C, serum 8243, 20-fold dilution)?
Answer: 2.181

Question: What about the “optical density (450 nm)” value ([2]; Table 4C, serum 8247, 20-fold dilution) of the same sequence?
Answer: 1.518

Question: What about the “optical density (450 nm)” value ([2]; Table 4C, serum 8250, 20-fold dilution) of the same sequence?
Answer: 0.110

Question: What about the “optical density (450 nm)” value ([2]; Table 4C, serum 8271, 20-fold dilution) of the same sequence?
Answer: 0.912

Question: What about the “optical density (450 nm)” value ([2]; Table 4C, serum 8273, 20-fold dilution) of the same sequence?
Answer: 2.468

Question: What about the “optical density (450 nm)” value ([2]; Table 4C, serum 8274, 20-fold dilution) of the same sequence?
Answer: 2.700

Question: What about the “optical density (450 nm)” value ([2]; Table 4C, serum 8275, 20-fold dilution) of the same sequence?
Answer: 1.489

Question: And the “optical density (450 nm)” value ([2]; Table 4C, serum 8276, 20-fold dilution)?
Answer: 2.133

Question: And the “optical density (450 nm)” value ([2]; Table 4C, serum 8277, 20-fold dilution)?
Answer: 1.771

Question: What about the “optical density (450 nm)” value ([2]; Table 4C, serum 8278, 20-fold dilution) of the same sequence?
Answer: 1.907

Question: And the “optical density (450 nm)” value ([2]; Table 5, sample 8242 (positive), peptide concentration 0.01 micrograms per milliliter, listed as Unbiotinylated HCV peptide II)?
Answer: 0.051

Question: And the “optical density (450 nm)” value ([2]; Table 5, sample 8242 (positive), peptide concentration 0.03 micrograms per milliliter, listed as Unbiotinylated HCV peptide II)?
Answer: 0.048

Question: What about the “optical density (450 nm)” value ([2]; Table 5, sample 8242 (positive), peptide concentration 0.1 micrograms per milliliter, listed as Unbiotinylated HCV peptide II) of the same sequence?
Answer: 0.058

Question: What about the “optical density (450 nm)” value ([2]; Table 5, sample 8242 (positive), peptide concentration 0.3 micrograms per milliliter, listed as Unbiotinylated HCV peptide II) of the same sequence?
Answer: 0.234

Question: What about the “optical density (450 nm)” value ([2]; Table 5, sample 8242 (positive), peptide concentration 1.0 micrograms per milliliter, listed as Unbiotinylated HCV peptide II) of the same sequence?
Answer: 0.408

Question: What about the “optical density (450 nm)” value ([2]; Table 5, sample 8242 (positive), peptide concentration 3.0 micrograms per milliliter, listed as Unbiotinylated HCV peptide II) of the same sequence?
Answer: 0.539

Question: And the “optical density (450 nm)” value ([2]; Table 5, sample 8243 (positive), peptide concentration 0.01 micrograms per milliliter, listed as Unbiotinylated HCV peptide II)?
Answer: 0.056

Question: What about the “optical density (450 nm)” value ([2]; Table 5, sample 8243 (positive), peptide concentration 0.03 micrograms per milliliter, listed as Unbiotinylated HCV peptide II) of the same sequence?
Answer: 0.057

Question: What about the “optical density (450 nm)” value ([2]; Table 5, sample 8243 (positive), peptide concentration 0.1 micrograms per milliliter, listed as Unbiotinylated HCV peptide II) of the same sequence?
Answer: 0.181

Question: What about the “optical density (450 nm)” value ([2]; Table 5, sample 8243 (positive), peptide concentration 0.3 micrograms per milliliter, listed as Unbiotinylated HCV peptide II) of the same sequence?
Answer: 0.831

Question: And the “optical density (450 nm)” value ([2]; Table 5, sample 8243 (positive), peptide concentration 1.0 micrograms per milliliter, listed as Unbiotinylated HCV peptide II)?
Answer: 1.221

Question: What about the “optical density (450 nm)” value ([2]; Table 5, sample 8243 (positive), peptide concentration 3.0 micrograms per milliliter, listed as Unbiotinylated HCV peptide II) of the same sequence?
Answer: 1.341

Question: And the “optical density (450 nm)” value ([2]; Table 5, sample 8318 (positive), peptide concentration 0.01 micrograms per milliliter, listed as Unbiotinylated HCV peptide II)?
Answer: 0.048

Question: And the “optical density (450 nm)” value ([2]; Table 5, sample 8318 (positive), peptide concentration 0.03 micrograms per milliliter, listed as Unbiotinylated HCV peptide II)?
Answer: 0.095

Question: What about the “optical density (450 nm)” value ([2]; Table 5, sample 8318 (positive), peptide concentration 0.1 micrograms per milliliter, listed as Unbiotinylated HCV peptide II) of the same sequence?
Answer: 0.181

Question: And the “optical density (450 nm)” value ([2]; Table 5, sample 8318 (positive), peptide concentration 0.3 micrograms per milliliter, listed as Unbiotinylated HCV peptide II)?
Answer: 0.347

Question: What about the “optical density (450 nm)” value ([2]; Table 5, sample 8318 (positive), peptide concentration 1.0 micrograms per milliliter, listed as Unbiotinylated HCV peptide II) of the same sequence?
Answer: 0.626

Question: And the “optical density (450 nm)” value ([2]; Table 5, sample 8318 (positive), peptide concentration 3.0 micrograms per milliliter, listed as Unbiotinylated HCV peptide II)?
Answer: 0.791

Question: And the “optical density (450 nm)” value ([2]; Table 5, sample 8320 (positive), peptide concentration 0.01 micrograms per milliliter, listed as Unbiotinylated HCV peptide II)?
Answer: 0.479

Question: And the “optical density (450 nm)” value ([2]; Table 5, sample 8320 (positive), peptide concentration 0.03 micrograms per milliliter, listed as Unbiotinylated HCV peptide II)?
Answer: 1.272

Question: What about the “optical density (450 nm)” value ([2]; Table 5, sample 8320 (positive), peptide concentration 0.1 micrograms per milliliter, listed as Unbiotinylated HCV peptide II) of the same sequence?
Answer: 1.828

Question: What about the “optical density (450 nm)” value ([2]; Table 5, sample 8320 (positive), peptide concentration 0.3 micrograms per milliliter, listed as Unbiotinylated HCV peptide II) of the same sequence?
Answer: 2.004

Question: And the “optical density (450 nm)” value ([2]; Table 5, sample 8320 (positive), peptide concentration 1.0 micrograms per milliliter, listed as Unbiotinylated HCV peptide II)?
Answer: 2.163

Question: What about the “optical density (450 nm)” value ([2]; Table 5, sample 8320 (positive), peptide concentration 3.0 micrograms per milliliter, listed as Unbiotinylated HCV peptide II) of the same sequence?
Answer: 2.278
